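All cell lines were grown in 96-well plates and treated with compound for 48 hours. Abbreviation: GI50, concentration required for 50% inhibition of growth.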 Activity calls are given as the source filed them. Rule as the data show it: active = GI50 up to about 1.1 µM and inactive = higher.
Columns and labels:
Assay in all cases: inhibition of tumour cell growth, NCI panel, 48 h
ACHN = tested on: ACHN
HCT-15 = tested on: HCT-15
HL-60 = tested on: HL-60
HOP-92 = tested on: HOP-92
LOX IMVI = tested on: LOX IMVI
M14 = tested on: M14
MDA-MB-435 = tested on: MDA-MB-435
NCI-H460 = tested on: NCI-H460
NCI-H522 = tested on: NCI-H522
NCI/ADR-RES = tested on: NCI/ADR-RES
OVCAR-4 = tested on: OVCAR-4
OVCAR-8 = tested on: OVCAR-8
PC-3 = tested on: PC-3
SF-539 = tested on: SF-539
SK-MEL-28 = tested on: SK-MEL-28
SK-OV-3 = tested on: SK-OV-3
SW-620 = tested on: SW-620
T47D = tested on: T47D
UACC-62 = tested on: UACC-62
A498 = tested on: A498

Compound | GI50 (ACHN) | GI50 (HCT-15) [µM] | GI50 (HL-60) | GI50 (HOP-92) | GI50 (LOX IMVI) | GI50 (M14) | GI50 (MDA-MB-435) | GI50 (NCI-H460) | GI50 (NCI-H522) | GI50 (NCI/ADR-RES) | GI50 (OVCAR-4) | GI50 (OVCAR-8) | GI50 (PC-3) | GI50 (SF-539) | GI50 (SK-MEL-28) | GI50 (SK-OV-3) | GI50 (SW-620) | GI50 (T47D) | GI50 (UACC-62) | GI50 (A498)
Cc1ccc(C2SC(=N)Nc3c2c(C)nn3C(=O)c2ccc(Cl)cc2)cc1 (stereo not given) | > 10 µM (inactive) | > 10 | > 10 µM (inactive) | > 10 µM (inactive) | > 10 µM (inactive) | > 10 µM (inactive) | > 10 µM (inactive) | > 10 µM (inactive) | > 10 µM (inactive) | > 10 µM (inactive) | > 10 µM (inactive) | > 10 µM (inactive) | > 10 µM (inactive) | > 10 µM (inactive) | > 10 µM (inactive) | > 10 µM (inactive) | > 10 µM (inactive) | > 10 µM (inactive) | > 10 µM (inactive) | 
O=C1Nc2ccc(Br)cc2/C1=N/N1C(=O)C(=O)N(C2CCCCC2)C1=S | 4.83 µM (inactive) | 2.42 | 2.16 µM (inactive) | 14.4 µM (inactive) | 4.07 µM (inactive) | 1.64 µM (inactive) | 1.94 µM (inactive) | 3.66 µM (inactive) |  | 3.22 µM (inactive) | 4.44 µM (inactive) |  | 3.52 µM (inactive) | 5.66 µM (inactive) | 4.07 µM (inactive) | 4.33 µM (inactive) | 3.56 µM (inactive) | 2.62 µM (inactive) | 3.05 µM (inactive) | 3.76 µM (inactive)
O=C1CSC(=S)N1c1ccc(F)cc1F | 53.7 µM (inactive) | 36.2 |  | 30.2 µM (inactive) | 36.5 µM (inactive) | 40.9 µM (inactive) | 35.6 µM (inactive) | 83.2 µM (inactive) | 18 µM (inactive) | 42.2 µM (inactive) | 49.2 µM (inactive) | 58.3 µM (inactive) | > 100 µM (inactive) | 38.7 µM (inactive) | 78.7 µM (inactive) | > 100 µM (inactive) | > 100 µM (inactive) | 30 µM (inactive) | 70.8 µM (inactive) | 67.9 µM (inactive)
COc1cc(/C=C2\N=C(c3ccccc3)N(c3nc4c(OC)ccc(OC)c4s3)C2=O)cc(OC)c1OC | > 100 µM (inactive) | 95.7 | 30.4 µM (inactive) | > 100 µM (inactive) | 51.8 µM (inactive) | > 100 µM (inactive) | 31.3 µM (inactive) | > 100 µM (inactive) | 35.7 µM (inactive) | > 100 µM (inactive) | > 100 µM (inactive) | 86.1 µM (inactive) | 59.7 µM (inactive) |  | > 100 µM (inactive) | > 100 µM (inactive) | 49.7 µM (inactive) | 32.4 µM (inactive) | 66.1 µM (inactive) | > 100 µM (inactive)
CCCCCCCC1(N=[N+]=[N-])C(=O)Nc2ccccc2C1=O (stereo not given) | 14.4 µM (inactive) | 21.9 | > 10 µM (inactive) | 13.6 µM (inactive) | 13.3 µM (inactive) | 17.7 µM (inactive) | 18.2 µM (inactive) | 21.4 µM (inactive) |  | 18.9 µM (inactive) | 16.2 µM (inactive) |  | 11.5 µM (inactive) | 15.7 µM (inactive) | 16.1 µM (inactive) | 15.7 µM (inactive) | 12.4 µM (inactive) | 14.6 µM (inactive) | 11.3 µM (inactive) | 0.971 µM (active)
CCOc1cc(C(c2c(O)c3ccccc3oc2=O)c2c(O)c3ccccc3oc2=O)ccc1OC | 18 µM (inactive) | 21.3 | 24.8 µM (inactive) | 16.5 µM (inactive) | 20.6 µM (inactive) | 19.1 µM (inactive) | 15.3 µM (inactive) |  | 18.3 µM (inactive) | 27.4 µM (inactive) | 17.2 µM (inactive) | 20 µM (inactive) | 17.3 µM (inactive) | 20.7 µM (inactive) | 28.1 µM (inactive) | 16.7 µM (inactive) | 35.4 µM (inactive) | 16.1 µM (inactive) | 18.5 µM (inactive) | 19.6 µM (inactive)
N#Cc1c(N)n(-c2cccc(C(=O)O)c2)c(=O)c2cc([N+](=O)[O-])ccc12 | > 100 µM (inactive) | > 100 | > 100 µM (inactive) | > 100 µM (inactive) | > 100 µM (inactive) |  | > 100 µM (inactive) | > 100 µM (inactive) |  | > 100 µM (inactive) | > 100 µM (inactive) | > 100 µM (inactive) | 42 µM (inactive) |  | > 100 µM (inactive) |  | > 100 µM (inactive) | > 100 µM (inactive) | > 100 µM (inactive) | > 100 µM (inactive)
Cn1c(-c2c(C3=CC(=O)N(c4ccccc4)C3=O)c3ccccc3n2C)cc2ccccc21 | > 100 µM (inactive) | > 100 | 45.1 µM (inactive) | > 100 µM (inactive) | > 100 µM (inactive) | > 100 µM (inactive) | > 100 µM (inactive) | > 100 µM (inactive) | 50 µM (inactive) | > 100 µM (inactive) | > 100 µM (inactive) | > 100 µM (inactive) | > 100 µM (inactive) | > 100 µM (inactive) | > 100 µM (inactive) | 4.38 µM (inactive) | > 100 µM (inactive) | > 100 µM (inactive) | > 100 µM (inactive) | 
CC(C)(NC1=NCCO1)c1ccccc1 | > 100 µM (inactive) | > 100 |  | > 100 µM (inactive) | > 100 µM (inactive) | > 100 µM (inactive) | > 100 µM (inactive) | > 100 µM (inactive) | > 100 µM (inactive) | > 100 µM (inactive) | > 100 µM (inactive) | > 100 µM (inactive) | > 100 µM (inactive) | > 100 µM (inactive) | > 100 µM (inactive) | > 100 µM (inactive) | > 100 µM (inactive) | > 100 µM (inactive) | > 100 µM (inactive) | > 100 µM (inactive)
O=C1c2ccccc2C(C2c3ccccc3C(=O)c3cc(Br)ccc32)c2ccc(Br)cc21 (stereo not given) | > 100 µM (inactive) | > 100 | < 0.01 µM (active) | > 100 µM (inactive) | > 100 µM (inactive) | > 100 µM (inactive) | > 100 µM (inactive) |  | > 100 µM (inactive) | > 100 µM (inactive) | > 100 µM (inactive) | > 100 µM (inactive) | > 100 µM (inactive) |  | > 100 µM (inactive) | > 100 µM (inactive) | > 100 µM (inactive) | > 100 µM (inactive) | > 100 µM (inactive) | > 100 µM (inactive)
CC1(c2ccc(Cl)cc2)CC(c2ccc(Cl)cc2)=C(C#N)C(=C(C#N)C#N)N1 (stereo not given) | 14.5 µM (inactive) | 15.8 | 19.7 µM (inactive) | 3.25 µM (inactive) | 17.3 µM (inactive) | 18.5 µM (inactive) | 18 µM (inactive) | 22.9 µM (inactive) |  | 19.3 µM (inactive) | 14.8 µM (inactive) | 14.9 µM (inactive) | 16.4 µM (inactive) | 18.4 µM (inactive) | 32.7 µM (inactive) | 16.9 µM (inactive) | 12 µM (inactive) | 12.6 µM (inactive) | 15.3 µM (inactive) | 18.5 µM (inactive)
COC1/C=C\C=C(/C)C(=O)NC2=CC(=O)C(N)=C(CC(C)CC(OC)C(O)C(C)C=C(C)C1OC(N)=O)C2=O (stereo not given) | 0.0935 µM (active) | 0.333 | 0.0585 µM (active) | 0.0156 µM (active) | 0.0193 µM (active) | 0.0204 µM (active) | < 0.0191 µM (active) | < 0.01 µM (active) | 0.0234 µM (active) | 28.7 µM (inactive) | 4.07 µM (inactive) | < 0.0203 µM (active) | 0.293 µM (active) |  | < 0.0266 µM (active) | < 0.0123 µM (active) | < 0.0133 µM (active) | 0.653 µM (active) | 0.0247 µM (active) | 19.1 µM (inactive)
O=C(CCCCCCCCC(=O)N1C(=O)CC(=O)N(c2cccc(Cl)c2)C1=S)N1C(=O)CC(=O)N(c2cccc(Cl)c2)C1=S | 46.2 µM (inactive) | 43.5 |  | 20.5 µM (inactive) | 47.1 µM (inactive) | 38.9 µM (inactive) | 59.8 µM (inactive) | 45.9 µM (inactive) | 16.3 µM (inactive) | 27.2 µM (inactive) | 37.7 µM (inactive) | 34.9 µM (inactive) | 26.6 µM (inactive) |  |  | 42.6 µM (inactive) |  | 37 µM (inactive) | 21.9 µM (inactive) | 39.9 µM (inactive)
CC1=NN(c2cccc(Cl)c2)C2(C1=Cc1cccs1)C(Cl)C(=O)N2c1nc2ccccc2s1 (stereo not given) | 20.8 µM (inactive) | 20.6 | 25.6 µM (inactive) | 21.2 µM (inactive) | 19.6 µM (inactive) | 34.8 µM (inactive) | 30.4 µM (inactive) | 20 µM (inactive) | 18.5 µM (inactive) | 21.9 µM (inactive) | 28.9 µM (inactive) | 20.4 µM (inactive) | 20.9 µM (inactive) | 15.2 µM (inactive) | 39.4 µM (inactive) |  | 38.4 µM (inactive) | 28.6 µM (inactive) |  | 21.8 µM (inactive)
COC(=O)C1=C(C)NC(C)=C(C(=O)OC)C1c1nc2sccn2c1[N+](=O)[O-] | > 100 µM (inactive) | > 100 | > 100 µM (inactive) | > 100 µM (inactive) | > 100 µM (inactive) | > 100 µM (inactive) | > 100 µM (inactive) | > 100 µM (inactive) |  | > 100 µM (inactive) | > 100 µM (inactive) | 79.4 µM (inactive) | > 100 µM (inactive) | 77.3 µM (inactive) | > 100 µM (inactive) | > 100 µM (inactive) | > 100 µM (inactive) | > 100 µM (inactive) | > 100 µM (inactive) | > 100 µM (inactive)

— ChEMBL document CHEMBL1201862, “PubChem BioAssay data set” (2004)
